Laboratory results from ChEMBL document CHEMBL4831532.
pEC50, pIC50, pKi: −log10 of the molar value. Activity calls are given as the source filed them. The calls are words filed in the database; no cut-off is given here.

Columns and labels:
SARS-CoV-2 [1] = type: functional, Severe acute respiratory syndrome coronavirus 2, JPN/TY/WK-251, Vero E6; details: dose 1-100 µM; time 72 hrs; at 1 to 100 µM
SARS-CoV-2 [2] = type: functional, organism-based; details: Severe acute respiratory syndrome coronavirus 2; JPN/TY/WK-251; Vero E6; dose 10.0 µM, time 3.0 day
SARS-CoV-2 [3] = type: functional
[4] = Inhibition of SARS-CoV-2 3CL protease using HiyteFluor-488ESATL-QSGLRKAK-(QXL)-NH2 fluorogenic peptide as substrate preincubated for 15 mins followed by substrate addition and measured after 30 mins by FRET assay; parameters: species or system Severe acute respiratory syndrome coronavirus 2
SARS-CoV-2 [5] = assay: microbe, parasite or virus in culture; details: Severe acute respiratory syndrome coronavirus 2, JPN/TY/WK-251, Vero C1008, 72 h
Vero C1008 = assay: Cytotoxicity against African green monkey Vero E6 cells incubated for 3 days; type: cell-based; details: chlorocebus sabaeus, vero c1008, 72 h; time 3 day
[6] = Binding affinity to SARS-CoV-2 3CL protease; parameters: species or system Severe acute respiratory syndrome coronavirus 2

Compound | pEC50 (SARS-CoV-2 [5]) | other results
CCC(CC)COC(=O)[C@H](C)N[P@](=O)(OC[C@H]1O[C@@](C#N)(c2ccc3c(N)ncnn23)[C@H](O)[C@@H]1O)Oc1ccccc1 | – | Activity (SARS-CoV-2 [1]): 100%; Activity (SARS-CoV-2 [2]): Active; Activity (SARS-CoV-2 [3]; Severe acute respiratory syndrome coronavirus 2, JPN/TY/WK-251, Vero E6, dose 100.0 µM, time 3.0 day): Active
Cc1ncc(Cl)cc1OC(=O)c1cccc2[nH]ccc12 | < 4.00 | pIC50 [4]: < 4.00
Cc1c(Cl)cncc1OC(=O)c1cccc2[nH]ccc12 | 4.71 | –
O=C(Oc1cncc(Cl)c1)c1ccc2[nH]ccc2c1 | 4.36 | –
COc1cccc2[nH]c(C(=O)Oc3cncc(Cl)c3)cc12 | 5.09 | –
Cc1cc(C(=O)Oc2cncc(Cl)c2)c2cc[nH]c2c1 | 5.51 | –
O=C(Oc1cncc(Cl)c1)c1cccc2[nH]ccc12 | – | CC50 (Vero C1008): > 100 µM; Activity (SARS-CoV-2 [1]): 100%; Activity (SARS-CoV-2 [2]): Active; Activity (SARS-CoV-2 [3]; dose 100 µM, time 3 day): 100%
O=C(Oc1cncc(Cl)c1)c1cccc2c1CCN2 | 4.82 | pIC50 [4]: 6.49; Activity (SARS-CoV-2 [2]): Active; Activity (SARS-CoV-2 [3]; dose 100 µM, time 3 day): 100%
Cc1c[nH]c2cccc(C(=O)Oc3cncc(Cl)c3)c12 | 4.25 | –
Cc1ccc2[nH]ccc2c1C(=O)Oc1cncc(Cl)c1 | < 4.00 | –
O=C(Oc1cncc(Cl)c1)c1cccc2ncoc12 | < 4.00 | –
O=C(Oc1cncc(Cl)c1)c1cccc2[nH]cnc12 | < 4.00 | –
O=C(Nc1cccc(Cl)c1)c1cccc2[nH]ccc12 | < 4.00 | pIC50 [4]: 4.00
O=C(Oc1cncc(Cl)c1)c1cc(F)cc2[nH]ccc12 | 4.85 | –
COc1cccc2[nH]c(C(=O)N[C@@H](CC(C)C)C(=O)N[C@@H](C[C@@H]3CCNC3=O)C(=O)c3nc4ccccc4s3)cc12 | – | pKi [6]: 7.75
O=C(Oc1cncc(Cl)c1)c1ccc2c(ccn2S(=O)(=O)c2cccc([N+](=O)[O-])c2)c1 | 4.16 | –
C=CCc1cn(CC=C)c2cccc(C(=O)Oc3cncc(Cl)c3)c12 | 4.94 | –
Cc1ncc(OC(=O)c2cccc3[nH]ccc23)cc1Cl | 4.52 | –
O=C(Oc1cncc(Cl)c1)c1cccc2c1OCCN2 | < 4.00 | –
C=CCn1ccc2c(C(=O)Oc3cncc(Cl)c3)cccc21 | 4.82 | –
O=C(Nc1cncc(Cl)c1)c1cccc2[nH]ccc12 | < 4.00 | –
Cc1nc2c(C(=O)Oc3cncc(Cl)c3)cccc2[nH]1 | 4.24 | –
Cc1ncc(OC(=O)c2cccc3[nH]cnc23)cc1Cl | 4.24 | –
